In US5296591A, “Trifluoromethylketone derivatives, processes for preparation thereof and use thereof” (Fujisawa Pharmaceutical Co., Ltd., priority 1990, dated 1994):
Read-outs that look alike come from different tables or passages of the source.

How the values were obtained:
[1] = molecular target: T1, human sputum elastase (HSE) (Homo sapiens, UniProt P08246); experiment: Protease inhibition assay (in vitro), human sputum elastase; type: biochemical; settings: substrate methoxysuccinyl-(Ala)2-Pro-Val-p-nitroanilide, 30 min, room temperature, pH 7.5
T1 construct: HSE was obtained from Elastin Products Company Inc., Mo., U.S.A; purchased Elastin Products Company Inc; host or cells: human sputum (from the enzyme's name)
T1 sequence (P08246 30-267): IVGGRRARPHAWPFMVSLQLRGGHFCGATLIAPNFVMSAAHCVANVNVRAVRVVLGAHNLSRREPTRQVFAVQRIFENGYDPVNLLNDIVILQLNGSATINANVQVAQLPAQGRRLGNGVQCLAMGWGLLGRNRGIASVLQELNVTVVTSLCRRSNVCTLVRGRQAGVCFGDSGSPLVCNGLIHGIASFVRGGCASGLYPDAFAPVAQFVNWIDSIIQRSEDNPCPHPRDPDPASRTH
Experimental: (§1) A buffer used throughout the assay was 0.1M HEPES (4-(2-hydroxyethyl)-1-piperazineethanesulfonic acid) containing 0.5M NaCl, pH 7.5. Twenty-five microliters of 2 mM methoxysuccinyl-(Ala)2 -Pro-Val-p-nitroanilide (100 mM of dimethyl sulfoxide solution were diluted in the buffer) and 50 μl of sample (10 μl of sample in organic solvent was diluted 5-fold in the buffer) were mixed in wells of 96 well-microliter plate. An absorbance of the mixture in wavelength at 415 nm was measured by a microplate reader (Corona Electric Co., Ibaraki, Japan). After the measurement, 25 μl of 6 μg/ml human sputum elastase (HSE) was added and the mixture was allowed to stand for 30 minutes at room temperature. Then, the absorbance at 415 nm was measured. Percent inhibition by drug was determined by 100×(1-"r" inhibitor present/"r" inhibitor absent), where "r" is absorbance after 30 minutes incubation minus absorbance before enzyme addition. Effect of inhibitors against porcine pancreas elastase (Type IV, 5 μg/ml final) was assayed similarly using N-succinyl-(Ala)3 -p-nitroanilide. HSE was obtained from Elastin Products Company Inc., Mo., U.S.A. All other substrates and protease were purchased from Sigma Chemicals Co.

[2] = molecular target: T2, porcine pancreas elastase (Type IV) (Sus scrofa, UniProt P00772); experiment: Protease inhibition assay (in vitro), porcine pancreas elastase; type: biochemical; settings: substrate N-succinyl-(Ala)3-p-nitroanilide, enzyme 5 μg/ml final
T2 construct: purchased Sigma Chemicals Co; host or cells: porcine pancreas (from the enzyme's name)
Experimental: as §1

[3] = system: human sputum elastase-induced lung hemorrhage in hamsters; experiment: Elastase-induced pulmonary damage (lung hemorrhage) in hamsters; type: in vivo, hamster; settings: 5 min predose; for Hemorrhage (OD541 nm): BAL hemoglobin 3 h after elastase; for ED50 elastase-induced lung hemorrhage: intratracheal
Experimental: Hamsters under pentobarbital anesthesia were used. Saline or saline-containing human sputum elastase was instilled intratracheally via a small incision in the ventral neck region using 1-ml syringe with a 27-gauge needle. After 3 hours, animals were sacrificed by CO2 asphyxiation, each animal's trachea was reexposed. The lungs were then laveged using a 2.5-ml aliquot of saline and then withdrawing the saline, yielding a final volume of approximately 1.5 ml bronchoalveolar lavage (BAC) fluid from each animal.
The cells of BAL fluid were collected by centrifugation and were then diluted with distilled water to disrupt, and the hemoglobin contents determined spectrophotometrically at 541 nm.
Test drugs were dissolved in saline or methyl cellulose, and instilled intratracheally in the same manner as used to instill elastase, at 5 minutes before instillation of elastase.

[4] = read-out: IC50 Porcine pancreas elastase

T2 sequence (P00772 27-266): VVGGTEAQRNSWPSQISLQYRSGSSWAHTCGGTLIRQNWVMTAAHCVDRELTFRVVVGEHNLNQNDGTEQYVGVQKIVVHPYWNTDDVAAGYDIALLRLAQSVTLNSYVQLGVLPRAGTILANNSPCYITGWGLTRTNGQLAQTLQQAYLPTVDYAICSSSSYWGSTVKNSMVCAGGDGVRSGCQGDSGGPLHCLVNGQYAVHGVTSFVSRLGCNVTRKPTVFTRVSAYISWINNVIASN

Compound	IC50 [1] [nM]	IC50 ([2]; IC50 Porcine pancreas elastase) [nM]	% inhibition of elastase-induced lung hemorrhage ([3]; 1 μg/site intratracheal) [%]	Hemorrhage (OD541 nm) ([3]; 1 μg/site intratracheal)	% inhibition of elastase-induced lung hemorrhage ([3]; 10 μg/site intratracheal) [%]	Hemorrhage (OD541 nm) ([3]; 10 μg/site intratracheal)	% inhibition of elastase-induced lung hemorrhage ([3]; 100 μg/site intratracheal) [%]	Hemorrhage (OD541 nm) ([3]; 100 μg/site intratracheal)	ED50 elastase-induced lung hemorrhage [3] [μg/site]	IC50 [2, 4] [nM]
CC(C)C(NC(=O)[C@@H]1CCCN1C(=O)[C@@H](NC(=O)c1ccc(C(=O)NCC(=O)O)cc1)C(C)C)C(=O)C(F)(F)F (mixture of isomers) [Example 13, 3(RS)-[[4-(carboxymethylaminocarbonyl)phenylcarbonyl]-L-valyl-L-prolyl]amino-1,1,1-trifluoro-4-methyl-2-oxopentane]	720	3300	21.6	11.63 ± 1.99	74.5	4.217 ± 1.02	100.0	0.6384 ± 0.222	3.0	
CC(C)C(NC(=O)[C@@H]1CCCN1C(=O)[C@@H](NC(=O)c1ccc(C(=O)NCCCC(=O)O)cc1)C(C)C)C(=O)C(F)(F)F (mixture of isomers) [Example 20, 3(RS)-[[4-[(3-carboxypropyl)aminocarbonyl]phenylcarbonyl]-L-valyl-L-prolyl]amino-1,1,1-trifluoro-4-methyl-2-oxopentane]	890		16.1	10.94 ± 1.35	86.0	2.522 ± 0.803	104.7	0.2680 ± 0.050	2.5	2400
CC(C)C(NC(=O)[C@@H]1CCCN1C(=O)[C@@H](NC(=O)c1ccc(C(=O)NCCN2CCOCC2)cc1)C(C)C)C(=O)C(F)(F)F.Cl (mixture of isomers) [Example 21, 3(RS)-[[4-[[2-(4-morpholino)ethyl]aminocarbonyl]phenylcarbonyl]-L-valyl-L-prolyl]amino-1,1,1-trifluoro-4-methyl-2-oxopentane hydrochloride]	1200		13.6	12.76 ± 1.11	66.3	5.372 ± 2.06	100.0	0.6476 ± 0.129	4.5	3700
CC(C)C(NC(=O)CN(C(=O)[C@@H](NC(=O)c1ccc(C(=O)NCC(=O)O)cc1)C(C)C)C1Cc2ccccc2C1)C(=O)C(F)(F)F (mixture of isomers) [Example 27, 3(RS)-[[4-(carboxymethylaminocarbonyl)phenylcarbonyl]-L-valyl-N-(2-indanyl)glycyl]-amino-1,1,1-trifluoro-4-methyl-2-oxopentane]	2400		24.8	10.68 ± 1.25	66.9	4.878 ± 0.917	99.8	0.3451 ± 0.084	3.7	16000
